Data from patent US11357779B2 (G1 Therapeutics, Inc., priority 2018, dated 2022).

Assay: Six- and twelve-month stability study of Form B at 25° C./60% RH and 40° C./75% RH
Type: physicochemical
Method: Form B was stored at 25° C./60% RH for twelve months and at 40° C./75% RH for six months.

CC(C)N1CCN(c2ccc(Nc3ncc4cc5n(c4n3)C3(CCCCC3)CNC5=O)nc2)CC1 [Form B]
long-term stability, time stable (25° C. and 60% relative humidity): at least 1 year
Appearance (25° C./60% RH, 0M): Yellow
HPLC Purity (25° C./60% RH, 0M): 99.5%
Moisture (%) (25° C./60% RH, 0M): 4.9%
XRPD (25° C./60% RH, 0M): Form B
Appearance (25° C./60% RH, 3M): Yellow
HPLC Purity (25° C./60% RH, 3M): 99.5%
Moisture (%) (25° C./60% RH, 3M): 4.07%
Appearance (25° C./60% RH, 6M): Yellow
HPLC Purity (25° C./60% RH, 6M): 99.5%
Moisture (%) (25° C./60% RH, 6M): 7.53%
Appearance (25° C./60% RH, 9M): Yellow
HPLC Purity (25° C./60% RH, 9M): 99.6%
Moisture (%) (25° C./60% RH, 9M): 7.29%
Appearance (25° C./60% RH, 12M): Yellow
HPLC Purity (25° C./60% RH, 12M): 99.5%
Moisture (%) (25° C./60% RH, 12M): 7.48%
XRPD (25° C./60% RH, 12M): Form B
XRPD spectrum at the longest time point studied (25° C./60% RH, twelve months): conformed to the reference spectrum
purity at the longest time point studied (25° C./60% RH, twelve months): 99.5%
Appearance (40° C./75% RH, 0M): Yellow solid
HPLC Purity (40° C./75% RH, 0M): 99.5%
Moisture (%) (40° C./75% RH, 0M): 4.9%
XRPD (40° C./75% RH, 0M): Form B
Appearance (40° C./75% RH, 1M): Yellow solid
HPLC Purity (40° C./75% RH, 1M): 99.5%
Moisture (%) (40° C./75% RH, 1M): 2.75%
Appearance (40° C./75% RH, 3M): Yellow solid
HPLC Purity (40° C./75% RH, 3M): 99.5%
Moisture (%) (40° C./75% RH, 3M): 7.47%
XRPD (40° C./75% RH, 3M): Form B
Appearance (40° C./75% RH, 6M): Yellow solid
HPLC Purity (40° C./75% RH, 6M): 99.5%
Moisture (%) (40° C./75% RH, 6M): 7.53%
XRPD (40° C./75% RH, 6M): Form B
XRPD spectrum at the longest time point studied (40° C./75% RH, six months): conformed to the reference spectrum
purity at the longest time point studied (40° C./75% RH, six months): 99.5%
